Patent publication EP0099194A2, “Novel benzamides” (BEECHAM GROUP PLC, priority 1982, dated 1984)

What was measured:
Format in all cases: in vivo
5-MDMT induced symptoms [1] = assay: Anti-5HT activity: inhibition of 5-methoxy-N,N-dimethyltryptamine induced symptoms in mice; details: Mouse, p.o., pretreated 1 h before 10 mg/kg ip 5-methoxy-N,N-dimethyltryptamine, dose inhibiting symptoms by 50%; for ED50: po
Description: (§1) Mice (♂ CD^-1 Charles Rine) are pretreated with the compounds 10 animals/group under investigation and 1 h later one group is injected with 10 mg/kg ip 5-methoxy-N,N-dimethyltryptamioe (Sigma). The symptoms of fore- paw tapping movements, head jerks and splayed limbs are scored: 1, present; O, absent, giving a maximum score of 3/mouse or 30/group. Results are expressed as the percentage inhibition compared to the group treated with 5-methoxy-N,N-dimethyl tryptamine alone. The dose of compound inhibiting the symptoms by 50% is determined graphically.

5-MDMT induced symptoms [2] = assay: Anti-5HT activity: inhibition of 5-MDMT induced symptoms in rats; details: Rat; for ED50: po
Description: [The procedure below names another organism; the source lists this organism under the same test.] as §1

[3] = tested on: post-synaptic Dopamine (D.A.) receptors; assay: Dopamine receptor blocking activity in the CNS: inhibition of apomorphine induced climbing; details: male CDl mice, p.o., apomorphine 1 mg/kg subcutaneous
Description: The test is based on that described by Protais, P., Constantin, J. and Schwartz J.C. (1976), Psychopharmacology, 50, 1-6.
When mice are given a dose of 1 mg/kg apomorphine and then placed in an enclosed environment, such as an inverted wire cage, they are seen to climb around the walls. This behavioural phenomenon is thought to be a consequence of the stimulation of post-synaptic Dopamine (D.A.) receptors in the nucleus accumbens. Inhibition of apomorphine induced climbing is therefore indicative of post-synaptic D.A. receptor blockade in the accumbens.
Groups of 10 male CDl mice, weighing 25-30 g were pre-treated orally with either graded doses of the test compound or vehicle, at appropriate time intervals before the subcutaneous administration of a sub-maximal dose of apomorphine (1 mg/kg). Immediately after the apomorphine injection the mice were placed in wire 'climbing cages' and each animal was scored for climbing behavour at 10 and 20 minutes post apomorphine as follows:- • Four paws on cage floor = O • Fore paws on cage wall = 1 • Four paws on cage wall = 2 […]

Compound: 4-Amino-5-chloro-2-methoxy-N-[3-β-(8-cyclopropylmethyl-8-azabicyclo (3,2,1)octyl]benzamide [Example 3]
- Anti 5-HT Activity Inhibition of 5-MDMT induced symptoms ED50 (5-MDMT induced symptoms [1]): ED503 mg/kg
- Anti 5-HT Activity Inhibition of 5-MDMT induced symptoms (5-MDMT induced symptoms [2]; at 10 mg/kg p.o.): 56% at 10

Compound: COc1cc(NC(C)=O)c(Cl)cc1C(=O)N[C@@H]1C[C@H]2CC[C@@H](C1)N2CC(C)(C)C [Example 1, 4-Aoetylamino-5-chloro-2-methoxy-N-[3-β-(8-neopentyl-8-azabicyclo (3,2,1)octyl)]benzamide]
- ED50 (5-MDMT induced symptoms [1]): 2.4 mg/kg
- ED50 (5-MDMT induced symptoms [2]): 10 mg/kg
- ED50 inhibition of apomorphine - induced climbing [3]: 4 mg/kg

Compound: COc1cc(N)c(Cl)cc1C(=O)NC1CC2CCC(C1)N2CC(C)(C)C (stereo not drawn) [Example 2, 4-Amino-5-chloro-2-methoxy-N-[3-β-(8-neopentyl-8-azabicyclo (3,2,1)octyl)] benzamide]
- ED50 (5-MDMT induced symptoms [1]): 0.2 mg/kg
- ED50 (5-MDMT induced symptoms [2]): 7.2 mg/kg

Compound: COc1cc(N)c(Cl)cc1C(=O)NC1CC2CCCC(C1)N2CC(C)(C)C (stereo not drawn) [Example 4, 4-Amino-5-chloro-2-mthoxy-N-[3-β-(9-neopentyl-9-azabicyclo (3,3,1)nonyl)]benzamide]
- ED50 (5-MDMT induced symptoms [1]): 4.6 mg/kg
- ED50 (5-MDMT induced symptoms [2]): 6.2 mg/kg

Compound: COc1cc(N)c(Cl)cc1C(=O)NC1CC2CCC(C1)N2CCC(C)C (stereo not drawn) [Example 5, 4-Amino-5-chloro-2-methoxy-N-[3-β-(8-isopentyl-8-azabicyclo(3,2,1)octyl)] benzamide]
- ED50 (5-MDMT induced symptoms [1]): 8 mg/kg

Compound: COc1cc(NC(C)=O)c(Cl)cc1C(=O)NC1CC2CCCC(C1)N2CC(C)(C)C (stereo not drawn) [Example 6]
- ED50 (5-MDMT induced symptoms [2]): 10 mg/kg

Compound: COc1cc(N)c(Br)cc1C(=O)NC1CC2CCC(C1)N2CC(C)(C)C (stereo not drawn) [Example 7, 4-Amino-5-bromo-2-methoxy-N-[3-β-(8-neopentyl-8-azabicyclo (3,2,1)octyl) ]benzamide]
- ED50 (5-MDMT induced symptoms [1]): 4 mg/kg
